This passage reports IC50 results from patent US20260014146A1, “CDK2 INHIBITORS AND METHODS OF USING THE SAME” (Cedilla Therapeutics, Inc., priority 2022, published 2026).

For one assay, the system named is Kuramochi cells. The assay can be described thus: BrdU cell proliferation assay. The settings on record: 96 h, developed on day 4, read-out: BrdU - KURAMOCHI.1: IC50. It is filed as cell-based. The method, then:
A BrdU assay was used as a measure of proliferation based on the DNA replication process of proliferating cells. BrdU, a pyrimidine analog, is added to the cell culture and incorporated into the DNA of proliferating cells. The presence of the BrdU analog was then measured through a colorimetric ELISA. After fixation and permeabilization of cells, peroxidase-conjugated antibody recognizing BrdU is added and allowed to incubate, followed by thorough washing to remove unbound antibody. In order to quantify the amount of bound antibody, peroxidase substrate is added and produces a color that can be measured at 450 nm.
On day −1, Kuramochi cells (Sekisui XenoTech JCRB0098) were seeded at 2,000 cells/well in columns 2-12 of a 96 well plate (Corning, CLS3596) in 150 uL media and allowed to adhere overnight at 37 degree with 5% CO2. In order to assess specificity of the compounds, Kuramochi RB^KO cells were also plated and treated, as RB^KO cells were not expected to show a proliferative response to CCNE/CDK specific inhibitors.
On day 0, the source plate was prepared by adding 10 mM compounds and performing 3-fold serial dilutions for a 4-point dose response of each compound. Using a multichannel pipette, 2 μL of the contents of the source plate were stamped into an intermediate plate with 500 μL of RPMI 1640 Media, GlutaMAX Supplement (Life Technologies. 61870127) in each well of a Nunc 96 DeepWell™ plate, non-treated 96 DeepWell plate, 2 mL/well, sterile, natural. 60/cs (Sigma Z717274) and mixed thoroughly. 50 uL from row A of this intermediate plate were added to rows A-H of one plate of previously seeded Kuramochi cells, and each subsequent row of the intermediate plate was added to a full plate of cells.
On day 4, the plates were developed using the BrdU ELISA Cell Proliferation Assay according to manufacturer's instructions (Roche, 11647229001). Briefly, BrdU was diluted 1:100 in Gibco®. Opti-MEM® and 20 μL/well was added, shaken for 10 minutes at 350 rpm, and then returned to the incubator for 1 hour. Following incubation, the medium was discarded, and the cells were fixed by adding 200 μL of Fix/Denature solution. The anti-BrdU peroxidase antibody was diluted 1:1000 in OptiMEM, added at 100 μL/well, and incubated while shaking (350 rpm) for one hour. Three washes with PBS were performed to remove any unbound antibody, followed by the addition of 100 μL of substrate solution to each well. […] was then added to halt the reaction, and plates were read out using an Envision spectrophotometer (Perkin Elmer) set to read 450 nm absorbance. Background absorbance values from empty wells were subtracted from all samples and then normalized to DMSO treated wells.

The target in the next assay is CDK2/Cyclin E1 (Homo sapiens (Human), UniProt P24941). The assay can be described thus: Caliper LabChip EZ Reader mobility shift assay. It is filed as biochemical. Particulars: 2.5 nM CDK2/Cyclin E1 (14-475), 100 μM ATP, 1.5 μM fluorescent peptide; read-out: Caliper Assay (CDK2/CCNE1): IC50. The method, then: Inhibition of CDK2/Cyclin E1 activity in the presence of compounds of the present disclosure was evaluated using a Caliper LabChip® EZ Reader mobility shift assay. In the assay, activated CDK2/Cyclin E1 catalyzes the phosphorylation of a fluorescently tagged peptide 5-FAM-QSPKKG-CONH2 (PerkinElmer, FL Peptide 18) which induces a difference in capillary electrophoresis mobility. The peptide substrate and product were measured, and the conversion ratio was used to determine the inhibition (as % activity and IC50 values) of CDK2/Cyclin E1. Reactions contained 50 mM HEPES pH 7.5, 10 mM MgCl2, 1 mM EDTA, 2 mM DTT, 0.01% Brij35, 0.5 mg/mL BSA, 0.1% DMSO, 2.5 nM CDK2/Cyclin E1 (14-475), 100 μM ATP, and 1.5 μM fluorescent peptide substrate.
Dose titrations of inhibitors in 100% DMSO were combined with 3.25 nM CDK2/Cyclin E1 (14-475) and 130 μM of ATP in reaction buffer. The mixtures were incubated for 30 minutes before the addition of fluorescent peptide substrate to initiate the kinase reaction. The final conditions were 2.5 nM CDK2/Cyclin E1 (14-475), 100 μM ATP, and 1.5 μM fluorescent peptide. The reactions were stopped after 100 minutes with the addition of EDTA (6 mM final EDTA concentration). The stopped reactions were analyzed on a Caliper LabChip® EZ Reader II. The conversion ratios were normalized to yield % activity, plotted against compound concentration, and fit to a four-parameter equation to determine the IC50 for each compound.

For assay [1], the system named is Kuramochi cells labeled with mApple-H2B. The assay can be described thus: IncuCyte cell proliferation assay. It is filed as cell-based. Particulars: Kuramochi RB-WT, cell count 0 to 72 hours; method calls it GI50. The method, then: IncuCyte® assay was used to measure the effect of disclosed compounds on cell proliferation. Fluorescent microscopy images of cells were taken immediately after compound treatment and 72 hours later. Image analysis software was used to obtain cell counts as a function of compound concentration. Kuramochi cells labeled with mApple-H2B were seeded on 384-well assay-ready plates. Plates were placed in an IncuCyte® (Sartorius) and scanned at 0 and 72 hours. IncuCyte® software was used to count the number of fluorescent nuclei in each well. The fold change in cell count from 0 to 72 hours in wells treated with increasing compounds concentrations (10 pts, 1/2 log dilution, 20 μM top concentration) was normalized to DMSO control wells. The normalized cell counts were fit with dose response curves and a GI50 was calculated.

`C[C@@H](OCC12CCC(CC1)OC2)[C@H](NC(=O)[C@@H]1CN(C(=O)c2cncs2)CC12CN(c1ncco1)C2)C(C)(C)O` [Compound I-3, (S)-N-((3S,4R)-4-(2-oxabicyclo[2.2.2]octan-4-ylmethoxy)-2-hydroxy-2-methylpentan-3-yl)-2-(oxazol-2-yl)-6-(thiazole-5-carbonyl)-2,6-diazaspiro[3.4]octane-8-carboxamide]: the IC50 in the assay on Kuramochi cells was over 10 µM; on CDK2/Cyclin E1, over 10 µM; in assay [1] it was over 20 µM.
As for `C[C@@H](OCC1CCC(F)(F)CC1)[C@H](NC(=O)[C@@H]1CN(C(=O)c2cncs2)CC12CN(c1ncco1)C2)C(C)(C)O` [Compound I-4, (S)-N-((3S,4R)-4-((4,4-difluorocyclohexyl)methoxy)-2-hydroxy-2-methylpentan-3-yl)-2-(oxazol-2-yl)-6-(thiazole-5-carbonyl)-2,6-diazaspiro[3.4]octane-8-carboxamide], the results for the IC50 (in the assay on Kuramochi cells; at CDK2/Cyclin E1; in assay [1]) were over 10 µM, 1 to 10 µM and over 20 µM, respectively.
For `C[C@@H](OCC1CCCCC1)[C@H](NC(=O)[C@@H]1CN(c2cccc3ncsc23)CC12CN(C(=O)[C@H]1CC1(C)C)C2)C(=O)N1CCCCC1` [Compound I-7, (S)-6-(benzo[d]thiazol-7-yl)-N-((2S,3R)-3-(cyclohexylmethoxy)-1-oxo-1-(piperidin-1-yl)butan-2-yl)-2-((S)-2,2-dimethylcyclopropanecarbonyl)-2,6-diazaspiro[3.4]octane-8-carboxamide], in that order: 5 to 10 µM, 0.1 to 1 µM and over 20 µM.
For `C[C@@H](OCC1CCCCC1)[C@H](NC(=O)[C@@H]1CN(c2cccc3scnc23)CC12CN(C(=O)[C@H]1CC1(C)C)C2)C(=O)N1CCCCC1` [Compound I-8, 6-(benzo[d]thiazol-4-yl)-N-((2S,3R)-3-(cyclohexylmethoxy)-1-oxo-1-(piperidin-1-yl)butan-2-yl)-2-((S)-2,2-dimethylcyclopropanecarbonyl)-2,6-diazaspiro[3.4]octane-8-carboxamide], in that order: 5 to 10 µM, over 10 µM and over 20 µM.
Taken in the same sequence, the figures for `C[C@@H](OCC1CCCCC1)[C@H](NC(=O)[C@@H]1CN(c2nccc3[nH]ncc23)CC12CN(C(=O)[C@H]1CC1(C)C)C2)C(=O)N1CCCCC1` [Compound I-9, (S)-N-((2S,3R)-3-(cyclohexylmethoxy)-1-oxo-1-(piperidin-1-yl)butan-2-yl)-2-((S)-2,2-dimethylcyclopropanecarbonyl)-6-(1H-pyrazolo[4,3-c]pyridin-4-yl)-2,6-diazaspiro[3.4]octane-8-carboxamide] were over 10 µM, over 10 µM and over 20 µM.
On to `C[C@@H](OCC1CCCCC1)[C@H](NC(=O)[C@@H]1CN(c2nccc3scnc23)CC12CN(C(=O)[C@H]1CC1(C)C)C2)C(=O)N1CCCCC1` [Compound I-10, (S)-N-((2S,3R)-3-(cyclohexylmethoxy)-1-oxo-1-(piperidin-1-yl)butan-2-yl)-2-((S)-2,2-dimethylcyclopropanecarbonyl)-6-(thiazolo[4,5-c]pyridin-4-yl)-2,6-diazaspiro[3.4]octane-8-carboxamide], for which the IC50 was over 10 µM with Kuramochi cells, over 10 µM at CDK2/Cyclin E1 and 5 to 20 µM in assay [1].
In the case of `C[C@@H](OCC1CCCCC1)[C@H](NC(=O)[C@@H]1CN(c2cccc3[nH]ccc23)CC12CN(C(=O)[C@H]1CC1(C)C)C2)C(=O)N1CCCCC1` [Compound I-14, (S)-N-((2S,3R)-3-(cyclohexylmethoxy)-1-oxo-1-(piperidin-1-yl)butan-2-yl)-2-((S)-2,2-dimethylcyclopropanecarbonyl)-6-(1H-indol-4-yl)-2,6-diazaspiro[3.4]octane-8-carboxamide], the IC50 is over 10 µM in the assay on Kuramochi cells, over 10 µM on CDK2/Cyclin E1 and 0.5 to 5 µM in assay [1].
